The text below walks through data of patent US10076533B2, “Acyclic nucleoside phosphonate diesters” (The Regents of the University of California, priority 2013, dated 2018).

Structures are written as SMILES. Read-outs that look alike come from different tables or passages of the source.

One data set deals with HPV-11. Nature of the data set: HPV-11 origin replication in HEK 293 cells, qPCR. In kind it is cell-based. To be noted: for EC90: read-out: EC90 (concentration required to reduce viral replication by 90%). The method, then: (§1) An origin-containing plasmid was co-transfected with HPV-11 E1 and E2 protein expression vectors into HEK 293 cells. At 4 hr post-transfection, cells were treated with compound dilutions and the cells were incubated for 48 hr. Replication of the virus origin was detected with DpnI and exonuclease III to remove unreplicated input bacterial plasmid DNA. Remaining replicated DNA was quantified by qPCR. Toxicity was determined by trypan blue exclusion.

Another data set concerns MT-2 cells. Kind of data set: Cytotoxicity in MT-2 cells, flow cytometry cell counts and viability. In kind it is cell-based, human. To be noted: 72 hrs, read-out: CC50, 50% Cytotoxic concentration MT2 cells T cell leukemia. The method, then:
(§2) MT-2 cells were incubated with drug for 72 hrs and harvested. Flow count beads (Beckman Coulter, Miami, Fla.) were added to the cell suspension followed by propidium iodide staining and analysis using flow cytometer and the 50% cytotoxic concentration (CC50) was calculated from the cell counts and viability.

A further data set deals with HIV-1LAI. Kind of data set: HIV antiviral assay in MT-2 cells, p24 reduction. Conditions: Human immunodeficiency virus 1, MT2, 96 h.
The conditions of data set [1]: human.
In data set [2] the test system is BK virus (Gardner strain). Nature of the data set: Antiviral effect in HFF cells infected with BK virus (Gardner strain), qPCR.
The nature of data set [3]: Cytotoxicity in 2.2.15 cells by neutral red uptake. To be noted: human.
The next data set deals with MAD-1 strain of JC virus. Nature of the data set: Antiviral effect in JC virus (MAD-1) infected COS7 cells, qPCR.
Data set [4] can be described thus: Cytotoxicity in MT-2 cells, flow cytometry cell counts and viability. Type of data set: cell-based, human. To be noted: human; MT-2 cells, 72 hrs. The method, then:
as §2

A short description of data set [5]: Cytotoxicity in HFF cells in parallel to cytomegalovirus assay. Conditions: human, […].
For data set [6] the following is noted: African green monkey, uninfected COS7 cells.
For another data set, the system named is HIV-192US727. Nature of the data set: Anti-HIV assay in human PBMC, supernatant reverse transcriptase activity. Conditions: for Selectivity Index: HIV-192US727, human PBMC.
Data set [7] in a line: Cytotoxicity in HFF cells in parallel to HSV-1 assay. To be noted: human, […].
In data set [8] the test system is AD169 strain of human cytomegalovirus. Nature of the data set: Antiviral effect in HFF cells infected with human cytomegalovirus (AD169).
A short description of data set [9]: Viability of PBMC by XTT reduction. To be noted: human.
The nature of data set [10]: Toxicity in HEK 293 cells by trypan blue exclusion (HPV-16 example). Type of data set: cell-based. To be noted: human. On the procedure:
(§3) An origin-containing plasmid was co-transfected with HPV-16 E1 and E2 protein expression vectors into HEK 293 cells. At 4 hr post-transfection, cells were treated with compound dilutions and the cells were incubated for 48 hr. Replication of the virus origin was detected with DpnI and exonuclease III to remove unreplicated input bacterial plasmid DNA. Remaining replicated DNA was quantified by qPCR. Toxicity was determined by trypan blue exclusion.

Data set [11] is described as follows: Toxicity in HEK 293 cells by trypan blue exclusion (HPV-11 example). To be noted: human. Type of data set: cell-based. On the procedure:
as §1

The subject of the next data set is Hepatitis B virus. Nature of the data set: HBV replication in 2.2.15 cells, HBV DNA blot hybridization. Conditions: for EC50: Hepatitis B virus, 168 h; for Selectivity Index: hepatitis B virus, 2.2.15 cells.
The next data set deals with HPV-16. Kind of data set: HPV-16 origin replication in HEK 293 cells, qPCR. In kind it is cell-based. To be noted: for Selectivity Index: HPV-16, HEK 293 cells. The method, then:
as §3

The subject of data set [12] is Human peripheral blood monocyte (PBMC). Nature of the data set: Viability of PBMC by XTT reduction. Conditions: human PBMC, XTT reduction.
Data set [13] is described as follows: Cytotoxicity in HFF cells in parallel to HSV-2 assay. To be noted: human, […].
Data set [14] can be described thus: Effect of oral compounds on body weight in Balb-c mice. In kind it is in vivo. To be noted: for body weight Day 0: before dosing; for lost % of body weight: day 6 versus day zero. On the procedure:
Compounds were administered at the indicated doses by oral gavage daily for 5 days. Weights measured before and on day 6 after 5 doses.

Where [15] appears, read: HPV-11 origin replication in HEK 293 cells, 48 hr, qPCR.
Setting [16] is: Human immunodeficiency virus 1, PBMC, 168 h.

Take `CCCCCCCCCCCCCCCCCCOCCOP(=O)(COCCn1cnc2c(=O)[nH]c(N)nc21)OCc1ccccc1` (single isomer, unassigned) [Compound 1a, benzyl octadecyloxyethyl 9-(2-phosphonomethoxyethyl)guanine]: the EC90 in the data set on HPV-11 (setting [15]) was 1.06 µM. Further, the CC50 in the data set on MT-2 cells was < 0.01 µM.
As to `CCCCCCCCCCCCCCCCCCOCCOP(=O)(COCCn1cnc2c(=O)[nH]c(N)nc21)OCc1ccccc1` (single isomer, unassigned) [Compound 1b, benzyl octadecyloxyethyl 9-(2-phosphonomethoxyethyl)guanine], the EC90 in the data set with HPV-11 (setting [15]) came to 1.16 µM. Further, the CC50 in the data set with MT-2 cells was < 0.01 µM.
Consider `CCCCCCCCCCCCCCCCCCOCCOP(=O)(COCCn1cnc2c(N)ncnc21)OCc1ccccc1` (centres unmarked) [Compound 2, benzyl octadecyloxyethyl 9-(2-phosphonomethoxyethyl)adenine], for which the EC50 in the data set on HIV-1LAI was < 0.01 nM; with HPV-11 (HEK293, HPV-11 origin replication in HEK 293 cells, 48 hr, qPCR), 0.27 µM; in [2] (Betapolyomavirus hominis, HFF, 336 h) it was < 0.03 µM; with MAD-1 strain of JC virus (JC polyomavirus, COS-7, 168 h) it was > 4 µM; in the data set on HIV-192US727 (setting [16]), < 0.01 µM; in data set [8] (Human betaherpesvirus 5, AD169, HFF, 336 h) it was 0.11 µM. The concentration giving a half-maximal response (EC50) with Hepatitis B virus worked out at 0.88 µM; in the data set with HPV-16 (HEK293, HPV-16 origin replication in HEK 293 cells, 48 hr, qPCR, read-out: EC50), 0.99 µM. The CC50 at 14 days in [1] worked out at 7.14 µM; in [5] it was 18.3 µM. The “Selectivity Index” value with HPV-11 (HPV-11, HEK 293 cells) is reported as >130; in data set [2] (BK virus (Gardner strain), HFF cells), >238; in the data set on MAD-1 strain of JC virus (JC virus (MAD-1), COS7 cells) it was <2.7; in the data set on HIV-192US727, >1100; in data set [8] (human cytomegalovirus (AD169), HFF cells), 166; with Hepatitis B virus, >113. Moreover, the “Selectivity Index” value in the data set with HPV-16 is listed as >10.1. The CC50 at 7 days in data set [3] was > 100 µM; in data set [6], 10.6 µM; in data set [9] (PHA-stimulated human PBMCs), 11 µM. For the same molecule, the CC50 at 72 h in data set [4] is < 0.01 µM. In addition, the CC50 in the data set on MT-2 cells (Homo sapiens, MT2) is < 0.01 µM. In data set [7], this molecule showed a CC50 at 3 days of 16.6 µM. The values for the CC50 at 48 h in data set [10] and in [11] were > 10 µM and > 100 µM, respectively.
Regarding `CCCCCCCCCCCCCCCCCCOCCOP(=O)(COCCn1cnc2c(=O)[nH]c(N)nc21)Oc1ccccc1` (centres unmarked) [Compound 19, phenyl octadecyloxyethyl 9-(2-phosphonomethoxyethyl)guanine], the figures for the CC50 at 7 days in data set [3] and in data set [9] were > 100 µM and 0.018 µM, respectively. Further, the results for the “Selectivity Index” value in the data set with HIV-192US727, with Hepatitis B virus and with HPV-16 were >9.0, >2.33 and >1.9, respectively. In addition, the EC50 is < 0.003 µM in the data set with HIV-192US727 (setting [16]); 43 µM with Hepatitis B virus; 5.27 µM with HPV-16 (HEK293, 48 h). In addition, in [10], the CC50 at 48 h was > 10 µM.
`CCCCCCCCCCCCCCCCOCCCOP(=O)(COCCn1cnc2c(=O)[nH]c(N)nc21)Oc1ccccc1` (centres unmarked) [Compound 25, phenyl hexadecyloxypropyl 9-(2-phosphonomethoxyethyl)guanine]: in the data set on HIV-192US727 (HIV-192US727 infected human PBMC, 7 days, supernatant reverse transcriptase activity), the EC50 was < 0.002 µM. In [12], this molecule gave a CC50 of 0.25 µM.
Consider `CCCCCCCCCCCCCCCCCCOCCOP(=O)(CO[C@H](C)Cn1cnc2c(=O)[nH]c(N)nc21)OCc1ccccc1` (stereo partly drawn) [Compound 73, benzyl octadecyloxyethyl 9-(R)-[(2-phosphonomethoxy)propyl]guanine], for which the results for the CC50 at 7 days in [3] and in data set [9] (PHA-stimulated human PBMCs) were 63 µM and 11.3 µM, respectively. For the same molecule, the entries for the “Selectivity Index” value with HIV-192US727 and in the data set with Hepatitis B virus were >2260 and 1.9, respectively. For the same molecule, the EC50 in the data set with HIV-192US727 (setting [16]) is < 0.005 µM; in the data set on Hepatitis B virus, 34 µM.
Turning to `CCCCCCCCCCCCCCCCCCOCCOP(=O)(CO[C@H](C)Cn1cnc2c(N)ncnc21)OCc1ccccc1` (stereo partly drawn) [Compound 74, benzyl octadecyloxyethyl 9-(R)-[(2-phosphonomethoxy)propyl]adenine], the CC50 at 7 days was 64 µM in data set [3] and 24.6 µM in data set [9] (PHA-stimulated human PBMCs). Besides, the “Selectivity Index” value with HIV-192US727 is >4920; with Hepatitis B virus, 10. Besides, the EC50 was < 0.005 µM in the data set with HIV-192US727 (setting [16]) and 6.5 µM with Hepatitis B virus.
As to `CCCCCCCCCCCCCCCCCCOCCOP(=O)(CO[C@H](COC)Cn1cnc2c(N)ncnc21)OCc1ccccc1` (stereo partly drawn) [Compound 146, benzyl octadecyloxyethyl 9-(S)-[(3-methoxy-2-phosphonomethoxy)propyl]adenine], the CC50 at 7 days was > 100 µM in [3] and 12.5 µM in data set [9] (PHA-stimulated human PBMCs). Also, the “Selectivity Index” value is listed as >312 in the data set with HIV-192US727 and >3.03 in the data set with Hepatitis B virus. Moreover, the half-maximal effective concentration (EC50) was < 0.04 µM with HIV-192US727 (setting [16]) and 33 µM in the data set with Hepatitis B virus.
`CCCCCCCCCCCCCCCCCCOCCOP(=O)(CO[C@H](COC)Cn1cnc2c(N)ncnc21)Oc1ccccc1` (stereo partly drawn) [Compound 164, phenyl octadecyloxyethyl 9-(S)-[(3-methoxy-2-phosphonomethoxy)propyl]adenine]: the CC50 at 7 days in [3] is > 100 µM; in data set [9] it was 15 µM. Besides, the “Selectivity Index” value with HIV-192US727 was >37.5; in the data set with Hepatitis B virus, >216. Moreover, the EC50 with HIV-192US727 (setting [16]) was < 0.4 µM; in the data set with Hepatitis B virus it was 0.46 µM.
As to `CCCCCCCCCCCCCCCCCCOCCOP(=O)(CO[C@H](CO)Cn1ccc(=O)[nH]c1=O)OCc1ccccc1` (stereo partly drawn) [Compound 221, benzyl octadecyloxyethyl 9-(S)-[3-hydroxy-2-(phosphonomethoxy)propyl]uracil], the CC50 at 3 days in [13] is > 10 µM.
For `CCCCCCCCCCCCCCCCCCOCCOP(=O)(O)CO[C@H](CO)Cn1ccc(N)nc1=O` [ODE-CDV], the “body weight Day 6” value in data set [14] (20 mg/kg/day oral gavage daily for 5 days) was 16.96 ± 1.38 (6). For the same molecule, the “body weight Day 0” value in data set [14] (20 mg/kg/day oral gavage) is 19.88 ± 0.55 (6). Also, in data set [14] (20 mg/kg/day), the “lost % of body weight” value is reported as 14.7%.
Regarding `CCCCCCCCCCCCCCCCCCOCCOP(=O)(O)COCCn1cnc2c(=O)[nH]c(N)nc21` [ODE-PMEG, octadecyloxyethyl 9-[2-(phosphonomethoxy)ethyl]guanine], in [14] (4 mg/kg/day oral gavage daily for 5 days), the “body weight Day 6” value is 15.5 ± 0.514 (3). In addition, the “body weight Day 0” value in data set [14] (4 mg/kg/day oral gavage) was 19.17 ± 0.581 (3). Besides, the “lost % of body weight” value in [14] (4 mg/kg/day) was determined as 19.1%.
